Test results: patent publication US7786172B2 (priority 2002, dated 2010)
Read-outs that look alike come from different tables or passages of the source. Blank lines part the entries; values can stand above or below the compound they belong to.

Experiments:
[1] = Example 1: percutaneous [3H]-4-hydroxy tamoxifen delivery in breast cancer patients (tissue, blood, urine radioactivity)
Description: The patients received [^3H]-labeled drug applied directly on the affected breasts at specified intervals ranging from 12 hours to 7 days before surgery to excise diseased tissue. Breast tissue from three regions: the tumor, tissue immediately surrounding the tumor, and normal tissue, was excised and immediately frozen in liquid nitrogen. Additionally, plasma and urine samples were obtained at scheduled intervals and frozen until analysis.

mastalgia [2] = conditions: cited from earlier work; for side effects: cyclical mastalgia treatment, nausea, vomiting, dizziness, headache, acne, sweating, amenorrhea, weight gain
[3] = Example 3: pharmacokinetics of 4-hydroxy tamoxifen gel in healthy premenopausal women; type: in vivo, human
Description: Each participant applied the gel daily for the duration of two menstrual cycles.
At the end of a menstrual cycle, each patient received a single dose, after which serial blood samples were collected at 0, 0.5, 1, 1.5, 2, 3, 4, 6, 12, 18, 24, 36, 48, and 72 hours.
On the first day of the following menstruation, treatment, which consisted of daily application of the gel over two menstrual cycles, began. Blood samples were collected 24 hours following the morning application of gel on days 7, 20 and 25 of the first and second cycles. On the last day of administration, day 25 of the second menstrual cycle, serial blood samples were collected prior to application and at 0.5, 1, 1.5, 2, 3, 4, 6, 12, 18, 24, 36, 48, and 72 hours after application of the gel.

rat liver = conditions: in vivo; cited from earlier work
mastalgia [4] = assay: Example 4: efficacy of percutaneous 4-hydroxy tamoxifen in mastalgia; type: in vivo, human
Description: All patients had normal mammograms within the previous 6 months, and utilized contraception throughout the study and 3 months preceding it.
The primary criteria considered were the number of painful days per month and the mean pain severity during the last 10 days of the menstrual cycle. Assessments of pain were made by patient self-evaluation. Secondary criteria included clinical assessment by the physician of breast tenderness, nodularity, breast size, local warmth, and breast circumference. Any side effects were recorded.
Daily self-evaluation of pain continued as in the earlier stage.

Skin penetration = conditions: without assistance from penetration enhancers

plateau of radioactivity in blood ([1]; percutaneous application): 2 days
SMILES: CC/C(=C(\c1ccccc1)c1ccc(OCCN(C)C)cc1)c1ccccc1 [[^3H]-tamoxifen, reference compound]

SMILES: CC(C)C[C@H]1C(=O)N2CCC[C@H]2[C@]2(O)O[C@](NC(=O)[C@@H]3C=C4c5cccc6[nH]c(Br)c(c56)C[C@H]4N(C)C3)(C(C)C)C(=O)N12 [bromocriptine]
side effects (mastalgia [2]): significant unwanted side effects

SMILES: C#C[C@]1(O)CC[C@H]2[C@@H]3CCC4=Cc5oncc5C[C@]4(C)[C@H]3CC[C@@]21C [danazol]
side effects (mastalgia [2]): significant unwanted side effects
efficacy at relieving cyclical mastalgia (mastalgia [2]; human, in vivo): some efficacy

SMILES: CC/C(=C(\c1ccc(O)cc1)c1ccc(OCCN(C)C)cc1)c1ccccc1 [4-hydroxy tamoxifen, 1-[4-(2-N-dimethylaminoethoxy)phenyl]-1-(4-hydroxyphenyl)-2-phenylbut-1-(Z)-ene]
plasma concentrations after the last gel application ([3]; 72 hours after the last gel application): remained detectable
Plasma concentration of 4-hydroxy tamoxifen, Mean ± SD (Range) ([3]; +8 days after last application, 0.5 mg/day, gel 20 mg/100 g): <LOQ
Plasma concentration of 4-hydroxy tamoxifen, Mean ± SD (Range) ([3]; +8 days after last application, 1 mg/day, gel 57 mg/100 g): (0-14.8) pg/mL
Plasma concentration of 4-hydroxy tamoxifen, Mean ± SD (Range) ([3]; +12 days after last application, 0.5 mg/day, gel 20 mg/100 g): ≤ 9.09 pg/mL
Plasma concentration of 4-hydroxy tamoxifen, Mean ± SD (Range) ([3]; +12 days after last application, 2 mg/day, gel 57 mg/100 g): (0-30.4) pg/mL
Plasma concentration of 4-hydroxy tamoxifen, Mean ± SD (Range) ([3]; +20 days after last application, 0.5 mg/day, gel 20 mg/100 g): 0 pg/mL
Plasma concentration of 4-hydroxy tamoxifen, Mean ± SD (Range) ([3]; +20 days after last application, 1 mg/day, gel 20 mg/100 g): <LOQ
Plasma concentration of 4-hydroxy tamoxifen, Mean ± SD (Range) ([3]; First cycle, Day 1, 0 hr, 0.5 mg/day, gel 20 mg/100 g): (0-17.2) pg/mL
Plasma concentration of 4-hydroxy tamoxifen, Mean ± SD (Range) ([3]; First cycle, Day 1, 0 hr, 1 mg/day, gel 20 mg/100 g): (0-13.9) pg/mL
Plasma concentration of 4-hydroxy tamoxifen, Mean ± SD (Range) ([3]; First cycle, Day 1, 0 hr, 1 mg/day, gel 57 mg/100 g): (0-9.5) pg/mL
Plasma concentration of 4-hydroxy tamoxifen, Mean ± SD (Range) ([3]; First cycle, Day 1, 0 hr, 2 mg/day, gel 57 mg/100 g): (0-0) pg/mL
plasma concentrations after a single dose ([3]; single 0.5 mg dose, gel): did not produce detectable plasma concentrations
rat liver carcinogenicity (rat liver): not
reduction of mean number of days with pain (mastalgia [4]; 1.5 mg/day): more than 50%
reduction of mean pain intensity (mastalgia [4]; 1.5 mg/day): more than 50%
Mean Number of Days of Pain Level Greater than 20 (mastalgia [4]; 1 dose/breast, 0.5 mg/day, placebo 8.1 +/− 4.2): 9.3 ± 5.2 days
Mean Pain Intensity During the Last 10 Days of the Menstrual Cycle (mastalgia [4]; 1 dose/breast, 0.5 mg/day, placebo 34 +/− 25): 38 +/− 25 /100
Mean Number of Days of Pain Level Greater than 20 (mastalgia [4]; 2 doses/breast, 1.0 mg/day): 8.2 ± 5.5 days
Mean Pain Intensity During the Last 10 Days of the Menstrual Cycle (mastalgia [4]; 2 doses/breast, 1.0 mg/day): 29 +/− 23 /100
Mean Number of Days of Pain Level Greater than 20 (mastalgia [4]; 3 doses/breast, 1.5 mg/day): 3.6 ± 5.2 days
Mean Pain Intensity During the Last 10 Days of the Menstrual Cycle (mastalgia [4]; 3 doses/breast, 1.5 mg/day): 15 +/− 19 /100
Mean Number of Days of Pain Level Greater than 20 (mastalgia [4]; 4 doses/breast, 2.0 mg/day): 4.7 ± 4.4 days
Mean Pain Intensity During the Last 10 Days of the Menstrual Cycle (mastalgia [4]; 4 doses/breast, 2.0 mg/day): 17 +/− 19 /100
skin penetration (Skin penetration): poorly penetrates the skin
peak urinary elimination compared to percutaneous tamoxifen ([1]; percutaneous administration): later time
metabolism in cytosolic and nuclear fractions of breast tissue ([1]; percutaneous application): remained unmetabolized except for limited isomerization from the trans to the cis form

SMILES: CCC(=C(c1ccc(O)cc1)c1ccc(O)cc1)c1ccccc1 [Bisphenol]
% Metabolites in Breast Tissue ([1]; 12 hr after percutaneous trans-[3H]-4-hydroxy tamoxifen to the affected breast): 1%
share of radioactivity in blood ([1]; 24 hours after percutaneous administration of [3H]-4-hydroxy tamoxifen): 11%
% Metabolites in Breast Tissue ([1]; 24 hr after percutaneous trans-[3H]-4-hydroxy tamoxifen to the affected breast): 2%
% Metabolites in Breast Tissue ([1]; 36 hr after percutaneous trans-[3H]-4-hydroxy tamoxifen to the affected breast): 3%
% Metabolites in Breast Tissue ([1]; Day 4 after percutaneous trans-[3H]-4-hydroxy tamoxifen to the affected breast): 8%
% Metabolites in Breast Tissue ([1]; Day 7 after percutaneous trans-[3H]-4-hydroxy tamoxifen to the affected breast): 8%

retention in the breast ([1]; percutaneous application of [3H]-labeled drug to the affected breast): shorter and far weaker
SMILES: CC/C(=C(\c1ccccc1)c1ccc(OCCN(C)C)cc1)c1ccccc1 [tamoxifen]
side effects reported by mastalgia patients (mastalgia [2]; oral tamoxifen): hot flashes, vaginal discharge, depression, amenorrhea, and nausea
patients with reduced pain (mastalgia [2]; orally administered, patients with moderate to severe mastalgia): 71-90%
effective at reducing pain (mastalgia [2]; patients with cyclical mastalgia): 94%
effective at reducing pain (mastalgia [2]; patients with non-cyclical mastalgia): 56%
